Among the data in EP2951180B1, “2,6,7,8 SUBSTITUTED PURINES AS HDM2 INHIBITORS” (Merck Sharp & Dohme Corp., priority 2013, dated 2014) are IC50 values, retold here.

Molecules are shown by their SMILES.

The first experiment deals with T1, HDM2 (Homo sapiens, UniProt Q00987).
T1 construct: Thioredoxin (N); made in house; host or cells: E. coli strain BL21(DE3)Rosetta
T1 sequence (Q00987 17-125): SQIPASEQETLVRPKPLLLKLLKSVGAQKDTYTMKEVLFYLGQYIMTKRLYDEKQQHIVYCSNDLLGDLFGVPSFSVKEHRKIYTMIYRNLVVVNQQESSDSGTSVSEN
The experiment in a line: HDM2 FRET assay (inhibition of binding of FITC labeled p53-pocket peptide to HDM2). As to conditions: Table 7; read-out: FRET IC50. Summed up:
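Final: 0.5 nM His-HDM2, 3 nM FITC peptide, 0.25 nM Tb anti-His Ab; PBS, 0.01% BSA, 0.01% Tween-20; 0.1% DMSO.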
Broadly, the IC50 is the midpoint of a concentration-inhibition curve. `COc1ccc(C)cc1-c1nc2nc(C(=O)O)nc(N[C@H](C)C3CC(F)(F)C3)c2n1Cc1ccc(C(F)(F)F)cc1` [Example 7.17, 6-{[(1R)-1-(3,3-difluorocyclobutyl)ethyl]amino}-8-(2-methoxy-5-methylphenyl)-7-[4-(trifluoromethyl)benzyl]-7H-purine-2-carboxylic acid]: the 50% inhibitory concentration (IC50) stood at 58.9 nM.
Turning to `COc1ccc(C)cc1-c1nc2nc(C(=O)O)nc(NC(C)C3CC(C)C3)c2n1Cc1ccc(C(F)(F)F)cc1` (stereo not shown) [Example 7.18, 8-(2-methoxy-5-methylphenyl)-6-{[1-(3-methylcyclobutyl)ethyl]amino}-7-[4-(trifluoromethyl)benzyl]-7H-purine-2-carboxylic acid], the IC50 is 162 nM.
As to `COc1ccc(C)cc1-c1nc2nc(C(=O)O)nc(N[C@H](C)C3CC3(F)F)c2n1Cc1ccc(C(F)(F)F)cc1` (stereo partly drawn) [Example 7.19, 6-{[(1R)-1-(2,2-difluorocyclopropyl)ethyl]amino}-8-(2-methoxy-5-methylphenyl)-7-[4-(trifluoromethyl)benzyl]-7H-purine-2-carboxylic acid], the IC50 worked out at 772 nM.

Staying with this experiment, now noted: Table 8; read-out: FRET IC50.
`CC(C)c1ccnc(-c2nc3nc(C(=O)O)nc(N[C@H](C)C4CCC4)c3n2Cc2ccc(C(F)(F)F)cc2N)c1` [Example 8.1, 7-[2-amino-4-(trifluoromethyl)benzyl]-6-{[(1R)-1-cyclobutylethyl]amino}-8-[4-(propan-2-yl)pyridin-2-yl]-7H-purine-2-carboxylic acid]: the IC50 was found to be 1.62 nM.

Still in this experiment, the particulars now being: Table 9; read-out: FRET IC50.
With `C[C@H](Nc1nc2nc(C(=O)O)nc(N[C@H](C)C3CCC3)c2n1Cc1ccc(C(F)(F)F)cc1)c1ccc(F)cc1` [Example 9.1, 6-{[(1R)-1-cyclobutylethyl]amino}-8-{[(1S)-1-(4-fluorophenyl)ethyl]amino}-7-[4-(trifluoromethyl)benzyl]-7H-purine-2-carboxylic acid], the half-inhibitory concentration (IC50) was 1.81 nM.
Consider `C[C@@H](Nc1nc(C(=O)O)nc2nc(N(C)c3ccccc3)n(Cc3ccc(C(F)(F)F)cc3)c12)C1CCC1` [Example 9.2, 6-{[(1R)-1-cyclobutylethyl]amino}-8-[methyl(phenyl)amino]-7-[4-(trifluoromethyl)benzyl]-7H-purine-2-carboxylic acid], for which the IC50 was found to be 20.7 nM.
On the same count and under the same terms, then `C[C@@H](Nc1nc(C(=O)O)nc2nc(N3CCCCC3Cc3ccccc3)n(Cc3ccc(C(F)(F)F)cc3)c12)C1CCC1` (stereo partly drawn) [Example 9.3, 8-(2-benzylpiperidin-1-yl)-6-{[(1R)-1-cyclobutylethyl]amino}-7-[4-(trifluoromethyl)benzyl]-7H-purine-2-carboxylic acid], with 14.5 nM.
Still for that read-out and setting: the figure for `C[C@@H](Nc1nc(-c2noc(=O)[nH]2)nc2nc(N3CCOC[C@H]3c3ccccc3)n(Cc3ccc(Cl)c(F)c3)c12)C1CCC1` [Example 9.4, 3-{7-(4-chloro-3-fluorobenzyl)-6-{[(1R)-1-cyclobutylethyl]amino}-8-[(3R)-3-phenylmorpholin-4-yl]-7H-purin-2-yl}-1,2,4-oxadiazol-5(4H)-one] is 0.848 nM; for `C[C@@H](Nc1nc(C(=O)O)nc2nc(N3CCN(C)CC3)n(Cc3ccc(C(F)(F)F)cc3)c12)C1CC1` [Example 9.5, 6-{[(1R)-1-cyclopropylethyl]amino}-8-(4-methylpiperazin-1-yl)-7-[4-(trifluoromethyl)benzyl]-7H-purine-2-carboxylic acid] it is 2350 nM; for `C[C@@H](Nc1nc(C(=O)O)nc2nc(N[C@@H](CO)c3ccccc3)n(Cc3ccc(C(F)(F)F)cc3)c12)C1CCC1` [Example 9.6, 6-{[(1R)-1-cyclobutylethyl]amino}-8-{[(1R)-2-hydroxy-1-phenylethyl]amino}-7-[4-(trifluoromethyl)benzyl]-7H-purine-2-carboxylic acid] it is 1.47 nM.
Still for that read-out and setting: the figure for `C[C@H](CO)Nc1nc2nc(C(=O)O)nc(N[C@H](C)C3CCC3)c2n1Cc1ccc(C(F)(F)F)cc1` [Example 9.7, 6-{[(1R)-1-cyclobutylethyl]amino}-8-{[(1R)-2-hydroxy-1-methylethyl]amino}-7-[4-(trifluoromethyl)benzyl]-7H-purine-2-carboxylic acid] is 35.8 nM; for `C[C@@H](Nc1nc(C(=O)O)nc2nc(N[C@H](CO)c3ccccc3)n(Cc3ccc(C(F)(F)F)cc3)c12)C1CCC1` [Example 9.8, 6-{[(1R)-1-cyclobutylethyl]amino}-8-{[(1S)-2-hydroxy-1-phenylethyl]amino}-7-[4-(trifluoromethyl)benzyl]-7H-purine-2-carboxylic acid] it is 15.2 nM.
In the case of `C[C@@H](Nc1nc(C(=O)O)nc2nc(N3CCOCC3)n(Cc3ccc(Cl)cc3)c12)C1CC1` [Example 9.9, 7-(4-chlorobenzyl)-6-{[(1R)-1-cyclopropylethyl]amino}-8-morpholin-4-yl-7H-purine-2-carboxylic acid], the IC50 stood at 574 nM.
On the same count and under the same terms, the figure for `C[C@@H](CO)Nc1nc2nc(C(=O)O)nc(N[C@H](C)C3CCC3)c2n1Cc1ccc(C(F)(F)F)cc1` [Example 9.10, 6-{[(1R)-1-cyclobutylethyl]amino}-8-{[(1S)-2-hydroxy-1-methylethyl]amino}-7-[4-(trifluoromethyl)benzyl]-7H-purine-2-carboxylic acid] is 85.9 nM; for `C[C@@H](Nc1nc(C(=O)O)nc2nc(N3CCCCC3)n(Cc3ccc(C(F)(F)F)cc3)c12)C1CCC1` [Example 9.11, 6-{[(1R)-1-cyclobutylethyl]amino}-8-piperidin-1-yl-7-[4-(trifluoromethyl)benzyl]-7H-purine-2-carboxylic acid] it is 17.6 nM; for `C[C@@H](Nc1nc(C(=O)O)nc2nc(NC3CCCCC3)n(Cc3ccc(C(F)(F)F)cc3)c12)C1CCC1` [Example 9.12, 6-{[(1R)-1-cyclobutylethyl]amino}-8-(cyclohexylamino)-7-[4-(trifluoromethyl)benzyl]-7H-purine-2-carboxylic acid] it is 7.65 nM.
In the case of `C[C@@H](Nc1nc(C(=O)O)nc2nc(NCc3ccccc3)n(Cc3ccc(C(F)(F)F)cc3)c12)C1CCC1` [Example 9.13, 8-(benzylamino)-6-{[(1R)-1-cyclobutylethyl]amino}-7-[4-(trifluoromethyl)benzyl]-7H-purine-2-carboxylic acid], the IC50 came to 3.07 nM.
As for `C[C@@H](Nc1nc(C(=O)O)nc2nc(N(C)Cc3ccccc3)n(Cc3ccc(C(F)(F)F)cc3)c12)C1CCC1` [Example 9.14, 8-[benzyl(methyl)amino]-6-{[(1R)-1-cyclobutylethyl]amino}-7-[4-(trifluoromethyl)benzyl]-7H-purine-2-carboxylic acid], the IC50 came to 5.62 nM.
Still for that read-out and setting: then `C[C@@H](Nc1nc(C(=O)O)nc2nc(N(C)C3CCCCC3)n(Cc3ccc(C(F)(F)F)cc3)c12)C1CCC1` [Example 9.15, 6-{[(1R)-1-cyclobutylethyl]amino}-8-[cyclohexyl(methyl)amino]-7-[4-(trifluoromethyl)benzyl]-7H-purine-2-carboxylic acid], with 7.4 nM.
Still for that read-out and setting: then `C[C@H](Nc1nc2nc(C(=O)O)nc(N[C@H](C)C3CCC3)c2n1Cc1ccc(C(F)(F)F)cc1)c1ccccc1` [Example 9.16, 6-{[(1R)-1-cyclobutylethyl]amino}-8-{[(1S)-1-phenylethyl]amino}-7-[4-(trifluoromethyl)benzyl]-7H-purine-2-carboxylic acid], with 1.91 nM; and `C[C@@H](Nc1nc2nc(C(=O)O)nc(N[C@H](C)C3CCC3)c2n1Cc1ccc(C(F)(F)F)cc1)c1ccccc1` [Example 9.17], with 15.8 nM.
The same measure, in the same setting: then `C[C@@H](Nc1nc(C(=O)O)nc2nc(N3CCOC(C)(C)C3)n(Cc3ccc(C(F)(F)F)cc3)c12)C1CCC1` [Example 9.18, 6-{[(1R)-1-cyclobutylethyl]amino}-8-(2,2-dimethylmorpholin-4-yl)-7-[4-(trifluoromethyl)benzyl]-7H-purine-2-carboxylic acid], with 32.7 nM; and `C[C@@H](Nc1nc(C(=O)O)nc2nc(N3CC(C)(C)OC(C)(C)C3)n(Cc3ccc(C(F)(F)F)cc3)c12)C1CCC1` [Example 9.19, 6-{[(1R)-1-cyclobutylethyl]amino}-8-(2,2,6,6-tetramethylmorpholin-4-yl)-7-[4-(trifluoromethyl)benzyl]-7H-purine-2-carboxylic acid], with 12.4 nM.
Consider `CC1CN(c2nc3nc(C(=O)O)nc(N[C@H](C)C4CCC4)c3n2Cc2ccc(C(F)(F)F)cc2)CCO1` (stereo partly drawn) [Example 9.20, 6-{[(1R)-1-cyclobutylethyl]amino}-8-(2-methylmorpholin-4-yl)-7-[4-(trifluoromethyl)benzyl]-7H-purine-2-carboxylic acid], for which the IC50 was 63.1 nM.
The same measure, in the same setting: then `C[C@@H](Nc1nc(C(=O)O)nc2nc(Nc3ccccc3)n(Cc3ccc(C(F)(F)F)cc3)c12)C1CCC1` [Example 9.21, 6-{[(1R)-1-cyclobutylethyl]amino} -8-(phenylamino)-7-[4-(trifluoromethyl)benzyl]-7H-purine-2-carboxylic acid], with 9.44 nM; and `C[C@@H](Nc1nc(C(=O)O)nc2nc(N3CCOC(c4ccccc4)C3)n(Cc3ccc(C(F)(F)F)cc3)c12)C1CCC1` (stereo partly drawn) [Example 9.22, 6-{[(1R)-1-cyclobutylethyl]amino}-8-(2-phenylmorpholin-4-yl)-7-[4-(trifluoromethyl)benzyl]-7H-purine-2-carboxylic acid], with 12.4 nM; and `C[C@@H](Nc1nc(C(=O)O)nc2nc(N3CCOC(C(F)(F)F)C3)n(Cc3ccc(C(F)(F)F)cc3)c12)C1CCC1` (stereo partly drawn) [Example 9.23, 6-{[(1R)-1-cyclobutylethyl]amino}-7-[4-(trifluoromethyl)benzyl]-8-[2-(trifluoromethyl)morpholin-4-yl]-7H-purine-2-carboxylic acid], with 25.2 nM.
On to `COCC1CN(c2nc3nc(C(=O)O)nc(N[C@H](C)C4CCC4)c3n2Cc2ccc(C(F)(F)F)cc2)CCO1` (stereo partly drawn) [Example 9.24, 6-{[(1R)-1-cyclobutylethyl]amino}-8-[2-(methoxymethyl)morpholin-4-yl]-7-[4-(trifluoromethyl)benzyl]-7H-purine-2-carboxylic acid], for which the IC50 was 72.9 nM.
